Holding throughout (type): biochemical
The target of one assay is DPP4 (Homo sapiens, UniProt P27487). The assay can be described thus: DPP4 inhibition, fluorogenic substrate H-Gly-Pro-AMC. Also noted: purchased R&D Systems. To be noted: for inhibition at 1 µM: read-out: hDPP4 inhibition % at 1 μM.
The target of the next assay is T1, recombinant human DPP7 (Homo sapiens, UniProt Q9UHL4).
T1 construct: purchased R&D Systems
Nature of the assay: DPP7 inhibition, fluorogenic substrate Lys-Pro-AMC. In outline:
(§1)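 Inhibitors are titrated in an 8-point series into the enzyme's assay buffer (DMSO no more than 0.5%). Substrate cleavage at 25 °C is followed by fluorescence, excitation 380 nm and emission 460 nm. IC50 values come from a four-variable logistic model.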

The next assay deals with T2, Recombinant human FAP (Homo sapiens, UniProt Q12884).
T2 construct: purchased R&D systems
T2 sequence (Q12884 1-760): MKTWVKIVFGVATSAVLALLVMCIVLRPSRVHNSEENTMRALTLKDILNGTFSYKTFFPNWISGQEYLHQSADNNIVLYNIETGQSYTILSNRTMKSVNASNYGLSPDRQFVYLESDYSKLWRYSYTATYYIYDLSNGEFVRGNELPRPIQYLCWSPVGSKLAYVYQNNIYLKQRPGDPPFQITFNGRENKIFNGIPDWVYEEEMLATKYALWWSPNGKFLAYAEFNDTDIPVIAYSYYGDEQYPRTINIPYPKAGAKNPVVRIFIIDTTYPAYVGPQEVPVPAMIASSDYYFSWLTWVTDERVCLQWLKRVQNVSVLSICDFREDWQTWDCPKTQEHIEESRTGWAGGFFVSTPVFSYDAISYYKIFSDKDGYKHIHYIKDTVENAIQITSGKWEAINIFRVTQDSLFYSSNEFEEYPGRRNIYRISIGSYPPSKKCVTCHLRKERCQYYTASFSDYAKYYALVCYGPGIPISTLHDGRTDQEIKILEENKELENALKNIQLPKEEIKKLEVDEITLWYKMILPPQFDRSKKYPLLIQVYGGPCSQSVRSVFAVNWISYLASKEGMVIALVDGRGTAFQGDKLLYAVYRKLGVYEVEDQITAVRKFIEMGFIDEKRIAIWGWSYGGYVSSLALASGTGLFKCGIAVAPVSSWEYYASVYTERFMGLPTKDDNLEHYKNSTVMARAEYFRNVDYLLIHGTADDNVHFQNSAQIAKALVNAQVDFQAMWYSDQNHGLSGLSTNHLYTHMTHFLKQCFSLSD
Nature of the assay: FAP inhibition, fluorogenic substrate Z-Gly-Pro-AMC. The gist of the method: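 Eight-point compound dilutions (≤0.1% DMSO) were incubated at 25° C with 10 ng recombinant human FAP in Tris pH 7.5/1 M NaCl/BSA buffer and Z-Gly-Pro-AMC. Inhibition was taken as % drop in fluorescence rate (380/460 nm) against uninhibited control; IC50 came from a four-parameter logistic fit.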

The target in the next assay is T3, recombinant human DPP9 (Homo sapiens, UniProt Q86TI2).
T3 construct: purchased R&D Systems
The assay can be described thus: DPP9 inhibition, fluorogenic substrate H-Gly-Pro-AMC. The gist of the method: as §1

The target of another assay is T4, recombinant human DPP8 (Homo sapiens, UniProt Q6V1X1).
T4 construct: purchased PBS Bioscience
The assay can be described thus: DPP8 inhibition, fluorogenic substrate Z-Ala-Pro-AMC. In outline: as §1

The target in a further assay is T5, recombinant human PREP (Homo sapiens, UniProt P48147).
T5 construct: purchased R&D System
T5 sequence (P48147 1-710): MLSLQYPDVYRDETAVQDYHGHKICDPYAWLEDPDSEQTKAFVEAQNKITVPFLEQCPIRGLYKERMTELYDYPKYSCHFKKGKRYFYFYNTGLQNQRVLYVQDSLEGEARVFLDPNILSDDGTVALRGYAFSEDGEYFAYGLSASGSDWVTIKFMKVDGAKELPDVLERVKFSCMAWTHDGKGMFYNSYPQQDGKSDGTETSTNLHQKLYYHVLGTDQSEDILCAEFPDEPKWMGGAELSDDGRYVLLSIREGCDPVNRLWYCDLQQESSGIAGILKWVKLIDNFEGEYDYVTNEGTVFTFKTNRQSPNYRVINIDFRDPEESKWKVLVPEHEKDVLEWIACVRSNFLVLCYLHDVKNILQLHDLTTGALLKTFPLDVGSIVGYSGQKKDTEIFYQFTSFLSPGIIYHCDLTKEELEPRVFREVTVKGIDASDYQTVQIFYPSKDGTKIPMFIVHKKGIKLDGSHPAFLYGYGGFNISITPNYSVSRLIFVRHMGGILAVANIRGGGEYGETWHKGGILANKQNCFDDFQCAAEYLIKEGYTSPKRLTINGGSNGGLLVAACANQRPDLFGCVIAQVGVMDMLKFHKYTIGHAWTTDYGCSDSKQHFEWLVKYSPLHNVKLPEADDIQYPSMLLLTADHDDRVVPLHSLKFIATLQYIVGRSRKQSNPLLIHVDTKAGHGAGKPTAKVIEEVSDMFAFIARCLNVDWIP
The assay can be described thus: PREP inhibition, fluorogenic substrate Z-Gly-Pro-AMC. The conditions noted are these: Inhibitory Activity (IC50, nM) PREP. The gist of the method: as §1

Setting [1] is: 25° C., H-Gly-Pro-AMC substrate.
Setting [2] is: 25° C., Z-Gly-Pro-AMC substrate.
The mark [3] stands for this setting: 25° C., Z-Ala-Pro-AMC substrate.
Setting [4] is: recombinant human FAP, substrate Z-Gly-Pro-AMC.

Molecules are shown by their SMILES. Read-outs that look alike come from different tables or passages of the source.

A word on the IC50: it is the point on the concentration scale where inhibition reaches its midpoint. By inhibition is commonly meant the relative decrease from the control value, in per cent.

T4 sequence (Q6V1X1 whole entry): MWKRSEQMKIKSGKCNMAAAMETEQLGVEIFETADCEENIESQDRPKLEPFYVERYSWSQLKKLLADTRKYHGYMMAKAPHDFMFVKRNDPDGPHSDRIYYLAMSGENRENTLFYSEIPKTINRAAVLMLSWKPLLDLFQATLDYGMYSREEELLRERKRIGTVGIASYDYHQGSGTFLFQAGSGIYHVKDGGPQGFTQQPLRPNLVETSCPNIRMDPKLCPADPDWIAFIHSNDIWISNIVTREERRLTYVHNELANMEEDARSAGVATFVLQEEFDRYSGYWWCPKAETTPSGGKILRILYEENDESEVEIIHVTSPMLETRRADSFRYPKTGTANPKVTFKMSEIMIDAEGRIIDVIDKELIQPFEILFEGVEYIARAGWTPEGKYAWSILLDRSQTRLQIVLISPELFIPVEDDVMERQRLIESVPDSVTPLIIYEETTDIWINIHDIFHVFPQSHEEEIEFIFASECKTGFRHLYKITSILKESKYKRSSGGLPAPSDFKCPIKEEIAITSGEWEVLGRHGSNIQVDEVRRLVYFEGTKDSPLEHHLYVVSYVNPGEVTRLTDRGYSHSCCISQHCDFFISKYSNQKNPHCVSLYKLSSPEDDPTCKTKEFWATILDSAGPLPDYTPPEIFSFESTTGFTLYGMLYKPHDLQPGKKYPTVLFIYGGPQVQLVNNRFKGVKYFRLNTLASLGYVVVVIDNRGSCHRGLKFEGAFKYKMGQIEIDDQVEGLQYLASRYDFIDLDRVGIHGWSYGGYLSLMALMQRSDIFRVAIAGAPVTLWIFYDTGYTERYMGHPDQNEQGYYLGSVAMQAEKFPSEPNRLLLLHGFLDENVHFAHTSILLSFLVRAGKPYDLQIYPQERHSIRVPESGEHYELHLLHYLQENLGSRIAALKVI
Chain of DPP4 (P27487 whole entry): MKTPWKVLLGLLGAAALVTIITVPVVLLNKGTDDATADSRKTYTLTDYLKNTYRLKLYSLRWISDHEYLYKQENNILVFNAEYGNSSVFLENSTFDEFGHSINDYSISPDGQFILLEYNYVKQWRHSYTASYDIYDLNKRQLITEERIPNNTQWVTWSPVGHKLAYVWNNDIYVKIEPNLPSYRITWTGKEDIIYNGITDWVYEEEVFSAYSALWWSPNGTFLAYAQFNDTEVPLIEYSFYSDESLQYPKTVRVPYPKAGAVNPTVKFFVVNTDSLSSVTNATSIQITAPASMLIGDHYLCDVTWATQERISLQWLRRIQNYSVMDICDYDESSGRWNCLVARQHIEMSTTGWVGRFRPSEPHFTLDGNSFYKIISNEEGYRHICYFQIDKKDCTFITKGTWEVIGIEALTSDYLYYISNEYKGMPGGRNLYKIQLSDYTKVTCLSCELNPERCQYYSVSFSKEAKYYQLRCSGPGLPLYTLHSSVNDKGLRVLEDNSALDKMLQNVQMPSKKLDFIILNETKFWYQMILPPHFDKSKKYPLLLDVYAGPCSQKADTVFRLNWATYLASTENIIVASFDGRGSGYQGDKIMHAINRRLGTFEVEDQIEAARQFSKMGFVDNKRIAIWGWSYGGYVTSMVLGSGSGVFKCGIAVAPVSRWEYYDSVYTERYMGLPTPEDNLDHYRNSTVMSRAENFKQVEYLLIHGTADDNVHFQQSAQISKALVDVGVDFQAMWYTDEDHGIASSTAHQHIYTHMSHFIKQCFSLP
T3 sequence (Q86TI2 whole entry): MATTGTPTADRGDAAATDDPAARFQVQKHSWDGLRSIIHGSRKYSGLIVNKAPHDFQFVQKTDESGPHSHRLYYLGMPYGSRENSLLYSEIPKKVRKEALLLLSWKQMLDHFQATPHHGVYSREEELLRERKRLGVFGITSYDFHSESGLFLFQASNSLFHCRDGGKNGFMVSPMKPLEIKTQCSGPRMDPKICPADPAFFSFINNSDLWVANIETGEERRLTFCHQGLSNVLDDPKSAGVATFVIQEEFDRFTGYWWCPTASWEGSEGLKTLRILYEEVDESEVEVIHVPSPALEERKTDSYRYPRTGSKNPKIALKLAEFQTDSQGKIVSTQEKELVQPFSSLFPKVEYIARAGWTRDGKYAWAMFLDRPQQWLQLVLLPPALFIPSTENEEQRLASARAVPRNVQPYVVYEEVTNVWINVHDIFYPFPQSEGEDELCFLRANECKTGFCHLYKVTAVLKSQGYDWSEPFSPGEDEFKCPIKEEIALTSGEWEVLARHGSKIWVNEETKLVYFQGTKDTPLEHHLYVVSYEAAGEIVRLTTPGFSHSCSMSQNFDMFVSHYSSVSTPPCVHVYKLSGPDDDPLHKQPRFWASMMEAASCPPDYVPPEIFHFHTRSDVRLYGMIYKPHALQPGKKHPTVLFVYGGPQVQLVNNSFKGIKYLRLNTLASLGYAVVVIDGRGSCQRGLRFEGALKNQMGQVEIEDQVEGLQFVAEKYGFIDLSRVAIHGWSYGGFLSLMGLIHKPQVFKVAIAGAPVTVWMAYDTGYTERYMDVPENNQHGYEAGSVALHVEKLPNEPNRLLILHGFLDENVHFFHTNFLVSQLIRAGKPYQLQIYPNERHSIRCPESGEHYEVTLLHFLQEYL

For `Cc1cnc2cccc(NC3CCN(CC(=O)N4CCC[C@H]4C#N)CC3)c2c1` [Example 121, (S)-1-(2-(4-((3-methylquinolin-5-yl)amino)piperidin-1-yl)acetyl)pyrrolidine-2-carbonitrile], the concentration for half-maximal inhibition (IC50) against DPP4 (setting [1]) is > 10 µM; at recombinant human DPP7, 1740 nM; at Recombinant human FAP (setting [2]), 1.84 nM; on recombinant human DPP9 (setting [1]), 46.9 µM; at recombinant human DPP8 (setting [3]) it was 48.1 µM; on recombinant human PREP (setting [2]), 73700 nM.

In the case of `N#C[C@@H]1CCCN1C(=O)CN1CC[C@@H](Nc2cnc3ccccc3c2)C1` [Example 17, (S)-1-(2-((R)-3-(quinolin-3-ylamino)pyrrolidin-1-yl)acetyl)pyrrolidine-2-carbonitrile], the IC50 against DPP4 (setting [1]) was > 1 µM; at recombinant human DPP7, 1610 nM; at Recombinant human FAP (setting [2]) it was 6.24 nM; at recombinant human DPP9 (setting [1]), > 100 µM; at recombinant human DPP8 (setting [3]), > 10 µM; at recombinant human PREP (setting [2]), 6960 nM.

With `N#C[C@@H]1CC(F)(F)CN1C(=O)CN1CC[C@H](Nc2ccc3ccccc3c2)C1` [Example 15, (S)-4,4-difluoro-1-(2-((S)-3-(naphthalen-2-ylamino)pyrrolidin-1-yl)acetyl)pyrrolidine-2-carbonitrile], the inhibition at 1 µM at DPP4 was 9.7%. Also, the IC50 on recombinant human DPP7 is 196 nM; on Recombinant human FAP (setting [2]) it was 12.3 nM; on recombinant human DPP9 (setting [1]), 48.8 µM; on recombinant human DPP8 (setting [3]), 0.253 µM; at recombinant human PREP (setting [2]) it was > 100000 nM.

With `N#C[C@@H]1CC(F)(F)CN1C(=O)CN1CCC(Nc2cccc3ncccc23)CC1` [Example 114, (S)-4,4-difluoro-1-(2-(4-(quinolin-5-ylamino)piperidin-1-yl)acetyl)pyrrolidine-2-carbonitrile], the inhibition at 1 µM at DPP4 was 15.7%. The IC50 at recombinant human DPP7 was < 30 nM; on Recombinant human FAP (setting [2]) it was 0.94 nM; at recombinant human DPP9 (setting [1]), 3.4 µM; on recombinant human DPP8 (setting [3]) it was 1.53 µM; at recombinant human PREP (setting [2]), 31000 nM.

Regarding `N#C[C@@H]1CC(F)(F)CN1C(=O)CN1CC[C@H](Nc2cnc3ccccc3c2)C1` [Example 6, (S)-4,4-difluoro-1-(2-((S)-3-(quinolin-3-ylamino)pyrrolidin-1-yl)acetyl)pyrrolidine-2-carbonitrile], the IC50 was > 1 µM at DPP4 (setting [1]); 46.2 nM on recombinant human DPP7; 1.83 nM on Recombinant human FAP (setting [2]); 5.71 µM at recombinant human DPP9 (setting [1]); 7.89 µM on recombinant human DPP8 (setting [3]); > 100000 nM at recombinant human PREP (setting [2]).

As to `N#C[C@@H]1CC(F)(F)CN1C(=O)CN1CC[C@H](Nc2ccccc2-c2ccccc2)C1` [Example 13, (S)-1-(2-((S)-3-([1,1′-biphenyl]-2-ylamino)pyrrolidin-1-yl)acetyl)-4,4-difluoropyrrolidine-2-carbonitrile], the 50% inhibitory concentration (IC50) against DPP4 (setting [1]) was > 1 µM; at recombinant human DPP7 it was 243 nM; at Recombinant human FAP (setting [2]), 24.6 nM; on recombinant human DPP9 (setting [1]) it was 56.5 µM; at recombinant human DPP8 (setting [3]) it was 0.163 µM; on recombinant human PREP (setting [2]) it was > 100000 nM.

Take `CN(c1ccc2cccnc2c1)C1CCN(CC(=O)N2CCC[C@H]2C#N)CC1` [Example 311, (2S)-1-[2-[4-[methyl(7-quinolyl)amino]-1-piperidyl]acetyl]pyrrolidine-2-carbonitrile]: the IC50 was > 10 µM at DPP4 (recombinant human DPP4); 2490 nM at recombinant human DPP7 (recombinant human DPP7); 14 nM at Recombinant human FAP (setting [4]); 96.9 µM on recombinant human DPP9 (recombinant human DPP9); > 100 µM on recombinant human DPP8 (recombinant human DPP8); 4350 nM on recombinant human PREP (recombinant human PREP).

Regarding `N#C[C@@H]1CCCN1C(=O)CN1CC[C@H](Nc2ccnc3c(C(F)(F)F)cccc23)C1` [Example 270, (2S)-1-[2-[(3S)-3-[[8-(trifluoromethyl)-4-quinolyl]amino]pyrrolidin-1-yl]acetyl]pyrrolidine-2-carbonitrile], the 50% inhibitory concentration (IC50) is > 10 µM at DPP4 (recombinant human DPP4); 591 nM at recombinant human DPP7 (recombinant human DPP7); 1.3 nM at Recombinant human FAP (setting [4]); 19.2 µM on recombinant human DPP9 (recombinant human DPP9); 44 µM on recombinant human DPP8 (recombinant human DPP8); 10900 nM at recombinant human PREP (recombinant human PREP).

These data come from patent publication US11655235B2, “Pyrrolidine and piperidine compounds” (YUHAN CORPORATION, priority 2019, dated 2023).
